Reference: ChEMBL document CHEMBL1151117, “Irritant principles of the spurge family (Euphorbiaceae). XIII. Oligocyclic and macrocyclic diterpene esters from latices of some Euphorbia species utilized as source plants of honey” (J Nat Prod, 1988)

Columns and labels:
Format in all cases: ADME, organism-based
Mus musculus [1] = species on record: Mus musculus; assay: Skin irritant activity in SIM mouse ear assessed as irritation unit per ear after 24 hrs; conditions: in vivo
Mus musculus [2] = species on record: Mus musculus; assay: Skin irritant activity in NMRI mouse ear assessed as irritant dose 50 per ear after 24 hrs; conditions: in vivo, topical_or_ocular
Mus musculus [3] = species on record: Mus musculus; assay: Skin irritant activity in NMRI mouse ear assessed as irritancy 50 after 24 hrs; conditions: in vivo

Structure (SMILES) | Activity (Mus musculus [1]) | Activity (Mus musculus [2]) | Activity (Mus musculus [3])
C/C=C(\C)C(=O)O[C@H]1[C@H]2[C@@H]([C@@H](O)[C@@H](C)C(=O)[C@@]34C[C@H](C)[C@H](OC(C)=O)[C@]3(/C=C(\C)[C@H]1OC(=O)C(C)CC)O4)C2(C)C (some centres not stated) | > 1000 µg | – | –
C/C=C(\C)C(=O)O[C@@]12C[C@@H](C)[C@@]3(O)[C@@H](C=C(COC(C)=O)C[C@]4(O)C(=O)C(C)=C[C@@H]34)[C@@H]1C2(C)C | – | 1.2 nmol | 0.8 nmol⁻¹
C/C=C(\C)C(=O)O[C@@H]1[C@@H]2[C@H]([C@H](OC(=O)/C(C)=C/C)[C@H](OC(C)=O)/C(C)=C/[C@@]34O[C@@]3(C[C@H](C)[C@@H]4OC(C)=O)C(=O)[C@@H]1C)C2(C)C | > 1000 µg | – | –
CC(=O)O[C@@]12C[C@@H](C)[C@@]3(O)[C@@H](C=C(CO)C[C@]4(O)C(=O)C(C)=C[C@@H]34)[C@@H]1C2(C)C [PROSTRATIN] | > 7 nmol | – | –
C/C=C(/C)C(=O)O[C@@]12C[C@@H](C)[C@@]3(O)[C@@H](C=C(CO)C[C@]4(O)C(=O)C(C)=C[C@@H]34)[C@@H]1[C@@]2(C)COC(=O)C(C)C | – | 0.25 nmol | 4 nmol⁻¹
CCC(C)C(=O)O[C@@]12C[C@@H](C)[C@@]3(O)[C@@H](C=C(COC(C)=O)C[C@]4(O)C(=O)C(C)=C[C@@H]34)[C@@H]1C2(C)C (some centres not stated) | – | 1.5 nmol | 0.7 nmol⁻¹
CCCCCCCCCCCCCC(=O)O[C@@H]1[C@@H](C)[C@@]2(O)[C@@H](C=C(CO)C[C@]3(O)C(=O)C(C)=C[C@@H]23)[C@@H]2C(C)(C)[C@]12OC(C)=O [PHORBOL MYRISTATE ACETATE] | 0.05 µg | 0.016 nmol | 63 nmol⁻¹
C/C=C(\C)C(=O)O[C@@]12C[C@@H](C)[C@@]3(O)[C@@H](C=C(CO)C[C@]4(O)C(=O)C(C)=C[C@@H]34)[C@@H]1C2(C)C | – | 0.28 nmol | 3.6 nmol⁻¹
CCC(C)C(=O)O[C@@]12C[C@@H](C)[C@@]3(O)[C@@H](C=C(CO)C[C@]4(O)C(=O)C(C)=C[C@@H]34)[C@@H]1C2(C)C (some centres not stated) | – | 0.83 nmol | 1.2 nmol⁻¹
CC(=O)OCC1=C[C@H]2[C@@H]3C(C)(C)[C@]3(OC(=O)C(C)C)C[C@@H](C)[C@]2(O)[C@@H]2C=C(C)C(=O)[C@@]2(O)C1 | – | 1.5 nmol | 0.7 nmol⁻¹
C/C=C(\C)C(=O)O[C@@H]1[C@@H]2[C@H]([C@H](OC(C)=O)[C@H](OC(C)=O)/C(C)=C/[C@@]34O[C@@]3(C[C@H](C)[C@@H]4OC(C)=O)C(=O)[C@@H]1C)C2(C)C | > 1000 µg | – | –
C/C=C(/C)C(=O)O[C@@]12C[C@@H](C)[C@@]3(O)[C@@H](C=C(COC(C)=O)C[C@]4(O)C(=O)C(C)=C[C@@H]34)[C@@H]1[C@@]2(C)COC(=O)C(C)C | – | 0.91 nmol | 1.1 nmol⁻¹
C/C=C(\C)C(=O)O[C@@H]1[C@@H]2[C@H]([C@H](OC(=O)C(C)CC)[C@H](OC(C)=O)/C(C)=C/[C@@]34O[C@@]3(C[C@H](C)[C@@H]4OC(C)=O)C(=O)[C@@H]1C)C2(C)C (some centres not stated) | > 1000 µg | – | –
C/C=C(/C)C(=O)O[C@@]12C[C@@H](C)[C@@]3(O)[C@@H](C=C(COC(C)=O)C[C@]4(O)C(=O)C(C)=C[C@@H]34)[C@@H]1[C@@]2(C)COC(=O)C(C)CC (some centres not stated) | – | 2.4 nmol | 0.4 nmol⁻¹
CC1=C[C@H]2[C@@]3(O)[C@H](C)C[C@]4(OC(=O)C(C)C)[C@H]([C@@H]3C=C(CO)C[C@]2(O)C1=O)C4(C)C | – | 0.53 nmol | 1.9 nmol⁻¹
C/C=C(\C)C(=O)O[C@@H]1[C@@H]2[C@H]([C@H](OC(=O)/C(C)=C/C)[C@H](OC(C)=O)/C(C)=C/[C@@]34O[C@@]3(C[C@H](C)[C@@H]4O)C(=O)[C@@H]1C)C2(C)C | > 1000 µg | – | –
